What was measured:
Format in all cases: in vivo
Myzus persicae = assay: Myzus Test (spray treatment); details: 500 g/ha; after 5 d
Meloidogyne incognita = assay: Meloidogyne Test (gall formation on lettuce roots); details: 20 ppm; after 14 d
Description: To produce a suitable preparation of active compound, 1 part by weight of active compound is mixed with the stated amounts of solvent and emulsifier, and the concentrate is diluted with water to the desired concentration.
Containers are filled with sand, solution of active compound, Meloidogyne incognita egg/larvae suspension and lettuce seeds. The lettuce seeds germinate and the plants develop. On the roots, galls are formed.
After the desired period of time, the nematicidal action is determined in % by gall formation. 100% means that no galls were found; 0% means that the number of galls on the treated plants corresponds to that of the untreated control.

Maize [1] = assay: Safener action after seed dressing, herbicide pre-emergence; details: seed not safener-dressed
Description: Safener Action after Seed Dressing
The number of crop plant seeds needed for each safener application rate was calculated. Based on the weight of 100 seeds, sufficient seeds were weighed into screw top glass bottles approximately twice the volume of the seeds.
The prospective safeners were formulated as wettable powders or water-dispersible granules. These formulations were weighed out so that the required application rates (g of a.i./kg of seed) were obtained. The samples were added to the seeds in the bottles, followed by sufficient water to produce a seed dressing. The bottles were closed and then placed in an overhead shaker (set at medium speed for a period of up to one hour) so that the seeds were evenly coated with the seed dressing. The bottles were opened and the seeds were used in the pre-emergence tests.
Pre-emergence Application of Herbicides
The safener-treated seeds and untreated seeds as controls were sown in a sandy loam soil in round pots having a diameter of 7 to 13 cm and covered with approximately 0.5 to 1 cm of a 1:1 mix of sandy loam soil and sand. The herbicides, as liquid (for example emulsifiable concentrates) or dry (for example wettable powders) formulations, were diluted to the required concentrations using deionized water and applied to the soil surface using a track sprayer calibrated to deliver 300 liters of spray solution per hectare.
The pots were placed under good growing conditions in a greenhouse, and a visual assessment of the herbicidal effects was made 3 to 4 weeks after the application of the herbicide. The assessment was on a percentage basis in comparison to untreated control plants (0%=no damage, 100%=complete kill).
Herbicide application by the pre-emergence method, safener-dressed: […]

Summer barley = assay: Herbicidal action and safener action, post-emergence, container trials with cereal
Description: (§1) Herbicidal Action and Safener Action, Pre-emergence or Post-emergence
(§2) Seeds of rhizome pieces of monocotyledonous and dicotyledonous harmful plants and of crop plants are placed into sandy loam in pots made of peat, covered with soil and cultivated in a greenhouse under growth conditions. In the pre-emergence application, safener and herbicide are applied after sowing, the post-emergence treatment is carried out about two to three weeks after sowing, at the three-leaf stage of the test plants. The herbicide/safener active compound combinations according to the invention, formulated as emulsion concentrates, and in parallel experiments the correspondingly formulated individual active compounds are, at various dosages at a water application rate of 300 l/ha (converted), sprayed onto the surface of the soil when applied by the pre-emergence method and onto the green parts of the plants when applied by the post-emergence method. Pre-emergence evaluation is carried out after 2-4 weeks, post-emergence evaluation is carried out after 1-3 weeks. During this time, the test plants are kept in a greenhouse under optimum growth conditions. The effect of the preparation is scored visually in comparison to untreated controls.
(§3) Container trials with cereal in the greenhouse.
(§4) Safener and herbicide were applied successively to the plants by the post-emergence method (application rates: see Tables)

Winter wheat = assay: as above
Description: as §1, §2, §3, §4

Summer wheat = assay: as above
Description: as §1, §2, §3, §4

Maize [2] = assay: Herbicidal action and safener action, safener and herbicide applied successively pre-emergence
Description: as §1, §2
Safener and herbicide applied successively by the pre-emergence method.

Setaria = assay: Herbicidal pre-emergence action; details: 320 g of a.i./ha
Text: (§5) 1. Herbicidal Pre-emergence Action
(§6) Seeds of monocotyledonous and dicotyledonous weed and crop plants are placed into sandy loam in wood fibre pots and covered with soil. The test compounds, formulated in the form of wettable powders (WP), are then, in various dosages as aqueous suspension with a water application rate of 600 l/ha (converted), with 0.2% of wetting agent added, applied to the surface of the covering soil.
(§7) After the treatment, the pots are placed in a greenhouse and kept under good growth conditions for the test plants. The visual assessment of the emergence damage on the test plants is carried out after a trial period of 3 weeks by comparison with untreated controls (herbicidal effect in percent (%): 100% effect=the plants have died, 0% effect=like control plants).

Lolium = assay: Herbicidal pre-emergence action; details: 320 g of a.i./ha
Text: as §5, §6, §7

[3] = herbicide pre-emergence 25 g of a.i./ha
[4] = herbicide pre-emergence 50 g of a.i./ha
[5] = application rate 25 g of a.i./ha
[6] = application rate 50 g of a.i./ha
[7] = application rate 100 g of a.i./ha

CCOC(=O)OC1=C(c2c(Cl)cc(C)cc2OC)C(=O)OC12CCC(OC)CC2 (mixture of isomers) [Ex. I-2-c-2]
kill rate against Myzus persicae (Myzus persicae): 100%

COc1cc(C)cc(Cl)c1C1=C(O)C2(CCC(OC)CC2)NC1=O (single isomer, unassigned) [Ex. I-1-a-3]
kill rate against Meloidogyne (Meloidogyne incognita): 100%
kill rate against Myzus persicae (Myzus persicae): 100%

CCCOc1cc(C)cc(Cl)c1C1=C(O)C2(CCC(OC)CC2)NC1=O (single isomer, unassigned) [Example I-1-a-4]
Maize (%) damage (Maize [1]; [3]): 10%
Maize (%) damage (Maize [1]; [4]): 20%
Summer barley (%) observed damage (Summer barley; [5]): 0%
Summer barley (%) observed damage (Summer barley; [6]): 10%
Summer barley (%) observed damage (Summer barley; [7]): 20%
Winter wheat (%) observed damage (Winter wheat; [5]): 10%
Winter wheat (%) observed damage (Winter wheat; [6]): 30%
Winter wheat (%) observed damage (Winter wheat; [7]): 50%
Summer wheat (%) damage (Summer wheat; [5]): 20%
Summer wheat (%) damage (Summer wheat; [6]): 45%
Summer wheat (%) damage (Summer wheat; [7]): 60%
Maize (%) damage (Maize [2]; [5]): 10%
Maize (%) damage (Maize [2]; [6]): 20%

CCOc1cc(C)cc(Cl)c1C1=C(O)C2(CCC(OC)CC2)NC1=O (single isomer, unassigned) [Example I-1-a-5]
Maize (%) damage (Maize [1]; [3]): 20%
Maize (%) damage (Maize [1]; [4]): 20%
Summer barley (%) observed damage (Summer barley; [5]): 10%
Summer barley (%) observed damage (Summer barley; [6]): 20%
Summer barley (%) observed damage (Summer barley; [7]): 20%
Winter wheat (%) observed damage (Winter wheat; [5]): 10%
Winter wheat (%) observed damage (Winter wheat; [6]): 30%
Winter wheat (%) observed damage (Winter wheat; [7]): 60%
Summer wheat (%) damage (Summer wheat; [5]): 20%
Summer wheat (%) damage (Summer wheat; [6]): 50%
Summer wheat (%) damage (Summer wheat; [7]): 60%

COc1cc(C)cc(Cl)c1C1=C(O)C2(CCOCC2)NC1=O [Ex. I-1-a-1]
kill rate against Meloidogyne (Meloidogyne incognita): 100%

COc1cc(C)cc(Cl)c1C1=C(O)C(C)(C)NC1=O [Ex. I-1-a-2]
kill rate against Setaria (Setaria): ≥ 80%
kill rate against Lolium (Lolium): ≥ 80%

COc1cc(C)cc(Cl)c1C1=C(O)C2(CCCC2)OC1=O [Ex. I-2-a-1]
kill rate against Myzus persicae (Myzus persicae): 100%

COc1cc(C)cc(Cl)c1C1=C(O)C2(CCC(OC)CC2)OC1=O (stereo not drawn) [Ex. I-2-a-2]
kill rate against Myzus persicae (Myzus persicae): 100%

COc1cc(C)cc(Cl)c1C1=C(OC(=O)C(C)C)C2(CCCC2)OC1=O [Ex. I-2-b-1]
kill rate against Myzus persicae (Myzus persicae): 100%

COc1cc(C)cc(Cl)c1C1=C(OC(=O)C(C)C)C2(CCOCC2)OC1=O [Ex. I-2-b-3]
kill rate against Myzus persicae (Myzus persicae): 100%

CCOC(=O)OC1=C(c2c(Cl)cc(C)cc2OC)C(=O)OC12CCCC2 [Ex. I-2-c-1]
kill rate against Myzus persicae (Myzus persicae): 100%

CCOC(=O)OC1=C(c2c(Cl)cc(C)cc2OC)C(=O)OC12CCOCC2 [Ex. I-2-c-3]
kill rate against Myzus persicae (Myzus persicae): 100%

COc1cc(C)cc(Cl)c1C1=C(OC(=O)C(C)C)C2(CCC(OC)CC2)NC1=O (stereo not drawn) [Example I-1-b-1]
Summer barley (%) observed damage (Summer barley; [5]): 30%
Summer barley (%) observed damage (Summer barley; [6]): 40%
Summer barley (%) observed damage (Summer barley; [7]): 55%

CCOC(=O)OC1=C(c2c(Cl)cc(C)cc2OC)C(=O)NC12CCC(OC)CC2 (stereo not drawn) [Example I-1-c-1]
Maize (%) damage (Maize [1]; [3]): 35%
Summer barley (%) observed damage (Summer barley; [5]): 10%
Summer barley (%) observed damage (Summer barley; [6]): 30%
Summer barley (%) observed damage (Summer barley; [7]): 60%
Winter wheat (%) observed damage (Winter wheat; [5]): 10%
Winter wheat (%) observed damage (Winter wheat; [6]): 30%

From patent US7947704B2, “2,4,6-phenyl-substituted cyclic ketoenols” (Bayer CropScience AG, priority 2004, dated 2011)
